Data on eleven compounds can be found in patent publication US20240238425A1, “HSD17B13 Inhibitors and/or Degraders” (Pfizer Inc., priority 2022, published 2024).

In the test the test system is HiBiT-HSD17β13 fusion protein (N-terminal HiBiT-tagged HSD17β13 isoform D) in Huh7 HiBiT-HSD17β13 OE cells. Put plainly: Whole-cell Huh7-HSD17B13 HiBiT assay (degrader potency and maximal efficacy, luminescence readout). The test is classed as cell-based, human. Particulars: 24 hour incubation, geometric mean, * = geometric mean for all forms tested (parent and salt forms); for DC50: read-out: Huh7_HIBIT-HSD17β13_DC50 GMean DC50; for Huh7_HIBIT-HSD17β13_DC50 GMean Asymptote Maximum: max. concentration 1 μM. The procedure: Degrader potency and maximal efficacy of test compounds were determined using a whole-cell Huh7-HSD17B13 HiBiT assay, utilizing a luminescence readout. A HiBiT tag was fused to the N-terminus of HSD17β13, and therefore the HiBiT luminescence signal produced in the assay was proportional to the level of HiBiT-HSD17β13 fusion protein in a sample.
A Huh7 HiBiT-HSD17β13 OE cell line was generated using electroporation with an N-terminal HiBiT-tagged HSD17β13 isoform D overexpression plasmid, followed by geneticin selection to produce a stable pool. Clones were created with varying HiBiT signals to optimize HiBiT HSD17 β13 ratios. A clone with similar HSD17β13 expression levels as human primary hepatocytes was selected for the compound screen.
Greiner 384-well white opaque, flat bottom, tissue culture treated plates (Greiner #781080) were used for both HiBiT and CTG assays. The treated plates were spotted with 25 nL of a compound which had been serial diluted 1 in 3.162 in 100% DMSO for an 11-point concentration response curve, with duplicate points at each concentration. The maximum concentration of the compounds was 1 mM, which was later diluted with cell suspension for a maximum concentration of 1 μM). High percentage effect (HPE) wells and zero percentage effect (ZPE) wells located in columns 1 and 24 were spotted with 25 nL of DMSO (Sigma #D2650) using an ECHO Acoustic Liquid Handler (Labcyte Echo 550 Series). Each plate was performed in duplicate.
The Huh7 HiBiT-HSD17β13 OE cells were plated on top of a compound or a DMSO control at 3,000 viable cells/well in 25 μL growth media (DMEM (Gibco #10569), 10% FBS HI (Gibco #16140), 1× Pen/Strep (Gibco #15070), 1×MEM Non-Essential Amino Acids (Gibco #11140), and 300 μg/mL Geneticin (Gibco #10131) in columns 2-24 of the plates. Huh7 parental cells were plated using the same parameters in column 1 (HPE) in the same culture medium, excluding Geneticin selection. Cells were incubated overnight with the compounds for 24 hours (with lid) at 37° C. ([…]).
Each assay was conducted after a 24 hour incubation period. In the HiBiT assay plates, 25 μL of complete Nano-Glo HiBiT Lytic detection system (Promega #PRN3040), consisting of HiBiT Lytic Buffer with the addition of 1:100 LgBiT Protein and 1:50 Substrate, was added to each well. In CTG counter screen plates, 25 μL of Cell Titer-Glo Luminescent Reagent (Promega #G7573) was added to each well. Both plates were centrifuged for 2 minutes at 1000 rpm and incubated at room temperature, in the dark, for 10 minutes. Then Luminescence was read using an EnVision Plate Reader (Perkin Elmer PE2103).
The raw data from the Envision Plate Reader was expressed as relative luminescence units (RLUs) for each well of the assay plates. Using HPE and ZPE controls, the % effect was calculated for each sample well as follows: Percent effect=[(sample RLU−HPE RLU)\(ZPE RLU−HPE RLU)]*100. The percent effect was plotted versus the compound concentration and a 50% degradation ([…]) was determined using a four-parameter logistic dose response equation. The raw data was analyzed using ABase (IDBS).
(HiBiT is a short tag that completes a luciferase, so light tracks the accessible tagged protein.)

Each structure is given as a SMILES string. Structures can show the parent of a compound that is named as a salt.

For orientation: DC50 means the midpoint of the concentration-degradation curve.

As to `Cn1c(=O)n(C2CCC(=O)NC2=O)c2ccc(CCCN3CCN(c4ccc(-c5noc(C67CCC(CNC(=O)c8cc(F)c(O)c(F)c8F)(CC6)CC7)n5)nn4)CC3)cc21.O=C(O)C(F)(F)F` (racemic) [Example 15, N-{[4-(3-{6-[4-(3-{1-[(3RS)-2,6-Dioxopiperidin-3-yl]-3-methyl-2-oxo-2,3-dihydro-1H-benzimidazol-5-yl}propyl)piperazin-1-yl]pyridazin-3-yl}-1,2,4-oxadiazol-5-yl)bicyclo[2.2.2]octan-1-yl]methyl}-2,3,5-trifluoro-4-hydroxybenzamide, trifluoroacetate salt], the DC50 was determined as 0.31 nM and the “Huh7_HIBIT-HSD17β13_DC50 GMean Asymptote Maximum” value was 85%.

For `Cn1c(=O)n(C2CCC(=O)NC2=O)c2ccc(CCCN3CCN(c4ccc5nn(C6CCC(CNC(=O)c7cc(F)c(O)c(F)c7F)CC6)cc5n4)CC3)cc21.O=CO` (racemic) [Example 16, N-{[(1r,4r)-4-{5-[4-(3-{1-[(3RS)-2,6-Dioxopiperidin-3-yl]-3-methyl-2-oxo-2,3-dihydro-1H-benzimidazol-5-yl}propyl)piperazin-1-yl]-2H-pyrazolo[4,3-b]pyridin-2-yl}cyclohexyl]methyl}-2,3,5-trifluoro-4-hydroxybenzamide, formate salt], the DC50 was 0.42 nM and the “Huh7_HIBIT-HSD17β13_DC50 GMean Asymptote Maximum” value turned out to be 82%.

As for `Cn1c(=O)n(C2CCC(=O)NC2=O)c2ccc(CCCN3CCN(c4nccc(-c5nc(C6CCC(CNC(=O)c7cc(F)c(O)c(F)c7F)CC6)no5)n4)CC3)cc21.O=C(O)C(F)(F)F` (racemic) [Example 17, N-{[(1r,4r)-4-(5-{2-[4-(3-{1-[(3RS)-2,6-Dioxopiperidin-3-yl]-3-methyl-2-oxo-2,3-dihydro-1H-benzimidazol-5-yl}propyl)piperazin-1-yl]pyrimidin-4-yl}-1,2,4-oxadiazol-3-yl)cyclohexyl]methyl}-2,3,5-trifluoro-4-hydroxybenzamide, trifluoroacetate salt], the DC50 is 0.47 nM and the “Huh7_HIBIT-HSD17β13_DC50 GMean Asymptote Maximum” value turned out to be 85%.

Consider `Cn1c(=O)n(C2CCC(=O)NC2=O)c2ccc(CCCN3CCN(c4nccc(-c5ncc(C67CCC(CNC(=O)c8cc(F)c(O)c(F)c8F)(CC6)CC7)o5)n4)CC3)cc21` (racemic) [Example 18, N-{[4-(2-{2-[4-(3-{1-[(3RS)-2,6-Dioxopiperidin-3-yl]-3-methyl-2-oxo-2,3-dihydro-1H-benzimidazol-5-yl}propyl)piperazin-1-yl]pyrimidin-4-yl}-1,3-oxazol-5-yl)bicyclo[2.2.2]octan-1-yl]methyl}-2,3,5-trifluoro-4-hydroxybenzamide], for which the DC50 came to 0.58 nM and the “Huh7_HIBIT-HSD17β13_DC50 GMean Asymptote Maximum” value is given as 82%.

In the case of `Cn1c(=O)n(C2CCC(=O)NC2=O)c2ccc(CCCN3CCc4nc(-c5ccc6cn([C@H]7CC[C@H](CNC(=O)c8cc(F)c(O)c(F)c8F)CC7)nc6c5)ccc4C3)cc21` (mixture of isomers) [Example 21, N-{[(1r,4r)-4-{6-[6-(3-{1-[(3RS)-2,6-Dioxopiperidin-3-yl]-3-methyl-2-oxo-2,3-dihydro-1H-benzimidazol-5-yl}propyl)-5,6,7,8-tetrahydro-1,6-naphthyridin-2-yl]-2H-indazol-2-yl}cyclohexyl]methyl}-2,3,5-trifluoro-4-hydroxybenzamide], the half-maximal degradation concentration (DC50) came to 0.38 nM and the “Huh7_HIBIT-HSD17β13_DC50 GMean Asymptote Maximum” value was found to be 74%.

Regarding `Cn1c(=O)n(C2CCC(=O)NC2=O)c2ccc(CCCN3C[C@H]4CCN(c5ccc6cn(C7CCC(CNC(=O)c8cc(F)c(O)c(F)c8F)CC7)nc6c5)C[C@H]4C3)cc21.O=CO` (mixture of isomers) [Example 22, N-{[(1r,4r)-4-{6-[(3aR,7aS)-2-(3-{1-[(3RS)-2,6-Dioxopiperidin-3-yl]-3-methyl-2-oxo-2,3-dihydro-1H-benzimidazol-5-yl}propyl)octahydro-5H-pyrrolo[3,4-c]pyridin-5-yl]-2H-indazol-2-yl}cyclohexyl]methyl}-2,3,5-trifluoro-4-hydroxybenzamide, formate salt], the 50% degradation concentration (DC50) was determined as 1.6 nM and the “Huh7_HIBIT-HSD17β13_DC50 GMean Asymptote Maximum” value came to 77%.

With `Cl.Cn1c(=O)n(C2CCC(=O)NC2=O)c2ccc(CCCN3CCN(c4ncc(-c5ccc6cn([C@H]7CC[C@H](CNC(=O)c8cc(F)c(O)c(F)c8F)CC7)nc6c5)cn4)CC3)cc21` (mixture of isomers) [Example 24, N-{[(1r,4r)-4-(6-{2-[4-(3-{1-[(3RS)-2,6-dioxopiperidin-3-yl]-3-methyl-2-oxo-2,3-dihydro-1H-benzimidazol-5-yl}propyl)piperazin-1-yl]pyrimidin-5-yl}-2H-indazol-2-yl)cyclohexyl]methyl}-2,3,5-trifluoro-4-hydroxybenzamide, hydrochloride salt], the DC50 turned out to be 0.18 nM and the “Huh7_HIBIT-HSD17β13_DC50 GMean Asymptote Maximum” value was 88* %.

Consider `Cl.Cn1c(=O)n(C2CCC(=O)NC2=O)c2cccc(CN3CCN(c4ncc(-c5ccc6cn([C@H]7CC[C@H](CNC(=O)c8cc(F)c(O)c(F)c8F)CC7)nc6c5)cn4)CC3)c21` (mixture of isomers) [Example 25, N-{[(1r,4r)-4-(6-{2-[4-({1-[(3RS)-2,6-dioxopiperidin-3-yl]-3-methyl-2-oxo-2,3-dihydro-1H-benzimidazol-4-yl}methyl)piperazin-1-yl]pyrimidin-5-yl}-2H-indazol-2-yl)cyclohexyl]methyl}-2,3,5-trifluoro-4-hydroxybenzamide, hydrochloride salt], for which the DC50 turned out to be 0.85 nM and the “Huh7_HIBIT-HSD17β13_DC50 GMean Asymptote Maximum” value is 84%.

`Cl.Cn1c(=O)n(C2CCC(=O)NC2=O)c2ccc(CN3CCN(c4ncc(-c5ccc6cn([C@H]7CC[C@H](CNC(=O)c8cc(F)c(O)c(F)c8F)CC7)nc6c5)cn4)CC3)cc21` (mixture of isomers) [Example 26, N-{[(1r,4r)-4-(6-{2-[4-({1-[(3RS)-2,6-dioxopiperidin-3-yl]-3-methyl-2-oxo-2,3-dihydro-1H-benzimidazol-5-yl}methyl)piperazin-1-yl]pyrimidin-5-yl}-2H-indazol-2-yl)cyclohexyl]methyl}-2,3,5-trifluoro-4-hydroxybenzamide, hydrochloride salt]: the 50% degradation concentration (DC50) was found to be 0.5 nM and the “Huh7_HIBIT-HSD17β13_DC50 GMean Asymptote Maximum” value was 82%.

`Cl.Cn1c(=O)n(C2CCC(=O)NC2=O)c2ccc(CCCN3CCN(c4ccc5cn([C@H]6CC[C@H](CNC(=O)c7cc(F)c(O)c(F)c7F)CC6)nc5c4)CC3)cc21` (mixture of isomers) [Example 27, N-{[(1r,4r)-4-{6-[4-(3-{1-[(3RS)-2,6-dioxopiperidin-3-yl]-3-methyl-2-oxo-2,3-dihydro-1H-benzimidazol-5-yl}propyl)piperazin-1-yl]-2H-indazol-2-yl}cyclohexyl]methyl}-2,3,5-trifluoro-4-hydroxybenzamide, hydrochloride salt]: the DC50 worked out at 0.82 nM and the “Huh7_HIBIT-HSD17β13_DC50 GMean Asymptote Maximum” value is on record as 86%.

Turning to `Cn1c(=O)n(C2CCC(=O)NC2=O)c2ccc(CCCN3CCn4c(-c5ccc6cn([C@H]7CC[C@H](CNC(=O)c8cc(F)c(O)c(F)c8F)CC7)nc6c5)cnc4C3)cc21` (mixture of isomers) [Example 31, N-{[(1r,4r)-4-{6-[7-(3-{1-[(3RS)-2,6-dioxopiperidin-3-yl]-3-methyl-2-oxo-2,3-dihydro-1H-benzimidazol-5-yl}propyl)-5,6,7,8-tetrahydroimidazo[1,2-a]pyrazin-3-yl]-2H-indazol-2-yl}cyclohexyl]methyl}-2,3,5-trifluoro-4-hydroxybenzamide, trifluoroacetate salt], the half-maximal degradation concentration (DC50) was 0.99 nM and the “Huh7_HIBIT-HSD17β13_DC50 GMean Asymptote Maximum” value is given as 85%.
